Measurements from US9216178B2, “Dry blend formulation of tetrahydrobiopterin” (BioMarin Pharmaceutical Inc., priority 2011, dated 2015).
Where a name gives a salt, the structure may show the parent alone.

Tests used:
[1] = room temperature, aqueous solutions; cited from earlier work
[2] = children treated for 4, 8, and 12 weeks; cited from earlier work
[3] = children, after 6 months of treatment; cited from earlier work
physchem = assay type: physicochemical; settings: water
Text: However, despite the commonality of wet granulation methods, it is not ideal for all blends. Specifically, BH4 dihydrochloride is moisture sensitive and will rapidly degrade in the presence of water. Furthermore, BH4 dihydrochloride is pH sensitive and commonly degrades in the presence of reducing sugars, flavoring agents, flavor enhancers, and aqueous solutions and thus wet blending of BH4 dihydrochloride with excipients can lead to degradation of the active ingredient. […] Accordingly, the dry blend method of producing a stable BH4 dihydrochloride powder sachet dosage is ideal.

[4] = Clinical evaluation of BH4 capsules: drug levels in cerebrospinal fluid; assay type: in vivo; settings: doses up to 40 mg/kg/day as a single dose; expected
Procedure: The clinical evaluation comprises two clinical studies.
A first study evaluates the relative bioavailability of BH4 dihydrochloride administered as a capsule in fasted conditions and after a meal in healthy subjects. Ascending doses of BH4 dihydrochloride up to 40 mg/kg/day are evaluated and drug levels in cerebrospinal fluid (CSF) are measured. […] Measurement of BH4 levels in CSF is expected to be indicative of BH4 availability in brain tissues.

[5] = Stability of BH4 dihydrochloride dry blend powder / sachet formulations; assay type: physicochemical; settings: Initial time point
Procedure: Stability under different storage conditions were assessed and the potency of the active BH4 dihydrochloride is presented.
Certain embodiments of the sachet dosage forms of the present disclosure are illustrated in Table 18, with a comparison of the stability of different BH4 or BH4-related compounds packaged in foil pouches.

Structure (SMILES): C[C@H](O)[C@H](O)[C@H]1CNc2nc(N)[nH]c(=O)c2N1 [BH4, (6R)-L-erythro-5,6,7,8-tetrahydrobiopterin]
- shelf-life [1]: less than 8 hours
- total scores on the Parental Satisfaction Survey (PSS) [2]: significant increases
- social interaction scores [3]: significant improvement

Structure (SMILES): C[C@H](O)[C@H](O)[C@H]1CNc2nc(N)[nH]c(=O)c2N1 [BH4 dihydrochloride, (6R)-L-erythro-5,6,7,8-tetrahydrobiopterin dihydrochloride]
- solubility (physchem): > 100 mg/mL
- peak levels of BH4 in CSF [4]: higher peak levels

Structure (SMILES): C[C@H](O)[C@H](O)[C@H]1CNc2[nH]c(N)nc(=O)c2N1.Cl.Cl [100 μg/mL reference API]
- Degradation/impurity: BH2 (Dihydrobiopterin) [5]: 0.04 area %
- Degradation/impurity: BH4 [5]: 0.05 area %
- Degradation/impurity: R-Tetrahydrobiolumazine [5]: 0.05 area %
- Degradation/impurity: S-BH4 [5]: 0.03 area %
- Potency (%) [5]: 100.6%
- Total Impurities (%) [5]: 0.17%
